Tests used:
[1] = Experiment 1: fluorine concentration in treated synthetic hydroxyapatite powder (microdiffusion analysis); conditions: pH 4.5, 37°C 5 minutes, then calcifying solution 60 minutes
Protocol: (§1) Sodium fluoride and the heterocyclic compounds or the fatty acid ester (for comparison) listed in Tables 1 to 3 were added to an distilled water in the amounts shown in Tables 1 to 3, and the pH of the solution was adjusted to 4.5 with dilute hydrochloride or sodium hydroxide to form several preparations. Synthetic hydroxyapatite powder was incubated in each of the preparations at 37°C for 5 minutes and in a calcifying solution at 37°C for 60 minutes, and then filtrated and dried. The fluorine concentration in the treated synthetic hydroxyapatite powder was determined by microdiffusion analysis, and the amount of dissolved calcium after incubating the treated powder in an acetate buffer at 37°C for 60 minutes was measured. The inhibition (%) of decalcification was then calculated by the following equation, to evaluate the acid resistance thereof. [drawing 3]

[2] = Experiment 1: inhibition of decalcification (dissolved calcium from treated powder in acetate buffer); conditions: acetate buffer 37°C 60 minutes
Protocol: as §1

[3] = Experiment 2: fluorine concentration in enamel of treated tooth by enamel biopsy; set-up: species or system bovine
Protocol: (§2) A fluoride compound, and pyridoxine hydrochloride, 3-pyridylcarbinol or thiamine hydrochloride were added to distilled water, in amounts shown in table 4 to produce preparations. A bovine tooth (which had been ground to remove 200 µm of the surface and expose the enamel surface) was incubated in each preparation at 37°C for 5 minutes and in a calcifying solution at 37°C for 60 minutes, and then washed with tap water and dried. The fluorine concentration in the enamel of the fluoride-treated bovine tooth was determined by enamel biopsy. […] Considerable decalcification. x ... No inhibition of decalcification.

[4] = Experiment 2: decalcification in acidic gelatin gel observed by microradiography; set-up: species or system bovine; conditions: 4W in acidic gelatin gel
Protocol: as §2

[F-].[Na+] [Sodium fluoride]
Fluorine concentration (ppm) ([1]; Sodium fluoride 0.2 %, pyridoxine hydrochloride 0 %): 4910 ppm | Fluorine concentration (ppm) ([1]; Table 2, preparations in distilled water): 4910 ppm | Fluorine concentration (ppm) ([1]; Table 3, preparations in distilled water): 4796 ppm | Inhibition of decalcification (%) ([2]; Sodium fluoride 0.2 %, pyridoxine hydrochloride 0 %, pH 4.5): 40.9% | Inhibition of decalcification (%) ([2]; Table 2, preparations pH 4.5): 40.9% | Inhibition of decalcification (%) ([2]; Table 3, preparations pH 4.5): 40.9% | F conc. in enamel ([3]; 1st Etch): 498 ppm | F conc. in enamel ([3]; 2nd etch): 309 ppm | F conc. in enamel ([3]; 3rd etch): 222 ppm | F conc. in enamel ([3]; 4th etch): 178 ppm | F conc. in enamel ([3]; 5th etch): 139 ppm | Inhibition of decalcification [4]: ○
